5 molecules from ChEMBL document CHEMBL3627640 (Bioorg Med Chem, 2015) can be followed below.

In the assay the target is T1, Mitogen-activated protein kinase kinase kinase 7 (Homo sapiens, UniProt O43318).
T1 sequence (O43318 whole entry): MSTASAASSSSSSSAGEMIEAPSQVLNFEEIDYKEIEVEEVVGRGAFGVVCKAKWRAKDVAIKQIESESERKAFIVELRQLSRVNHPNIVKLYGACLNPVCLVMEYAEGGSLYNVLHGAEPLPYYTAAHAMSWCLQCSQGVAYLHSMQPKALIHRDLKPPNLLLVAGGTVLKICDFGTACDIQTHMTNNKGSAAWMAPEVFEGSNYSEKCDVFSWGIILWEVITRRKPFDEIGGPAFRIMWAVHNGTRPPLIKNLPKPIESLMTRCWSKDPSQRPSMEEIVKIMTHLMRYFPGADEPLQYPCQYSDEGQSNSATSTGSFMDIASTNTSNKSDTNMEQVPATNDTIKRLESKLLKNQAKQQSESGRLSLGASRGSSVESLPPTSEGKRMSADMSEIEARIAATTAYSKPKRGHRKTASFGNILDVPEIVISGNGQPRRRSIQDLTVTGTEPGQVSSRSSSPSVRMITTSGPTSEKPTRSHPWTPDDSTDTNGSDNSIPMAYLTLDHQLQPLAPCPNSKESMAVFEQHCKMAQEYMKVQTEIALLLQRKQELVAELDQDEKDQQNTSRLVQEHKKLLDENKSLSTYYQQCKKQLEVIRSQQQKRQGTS
In words: Inhibition of TAK1 (unknown origin).
On to `COc1cc(O)c2c(c1)/C=C/C[C@H](O)[C@H](O)C(=O)CCC[C@H](C)OC2=O`, for which the IC50 came to 2.6 µM.
`COc1cc(O)c2c(c1)/C=C/C[C@@H]1OC(CC(=O)[C@H]1O)C[C@H](C)OC2=O` had an IC50 of more than 30 µM.
For the molecule `COc1cc(O)c2c(c1)[C@H]1O[C@@H]1C[C@H](O)[C@H](O)C(=O)CCC[C@H](C)OC2=O`, the IC50 is more than 30 µM.
On to `COc1cc(O)cc2c1C(=O)O[C@@H](C)CCCCC/C=C/C(=O)C2`, for which the concentration for half-maximal inhibition (IC50) was more than 30 µM.
The molecule `C/C=C/C=C\C(=O)[C@@H](O)[C@@H](O)C/C=C/c1cc(OC)cc(OC)c1C(=O)OC` showed an IC50 of more than 30 µM.
